Laboratory results from patent US20130123358A1, “Metabolic Benefits to Butyrate as a Chronic Diet Supplement” (priority 2009, published 2013).

Columns and labels:
Format in all cases: in vivo, mouse
[1] = tested on: IRS-1 and Akt phosphorylation; assay: Insulin signaling immunoblot in gastrocnemius muscle after insulin injection; conditions: butyrate 5% w/w in HFD 13 weeks, 30 min after insulin 0.75 U/kg
Source text: Fresh fat and muscles were collected and frozen in liquid nitrogen. The whole cell lysate protein was extract in lysis buffer with sonication and analyzed in western blot as described elsewhere (16). Antibodies were used in study of myoglobin (sc-25607, Santa Cruz), PGC-1 (sc-13068, Santa Cruz), Tubulin (ab7291, Abcam), myosin (M8421, Sigma), pAMPK (Thr 172, #2531, Cell signaling) and p-p38 (sc-7975, Santa Cruz). To detect multiple signals from one membrane, the membrane was stripped with a stripping buffer. Intensity of the immunoblot signal was quantified using a computer program, ImageJ 1.37v (NIH). The mean values of results from three experiments (6 mice each group) were presented. The antibodies to PGC-1α and UCP-1 were from Dr. Thomas Gettys at Pennington Biomedical Research Center, Baton Rouge, La.
Tail vein blood was used for the glucose assay after 16 hr fasting during the period of HFD feeding. […] The insulin was determined at 16 weeks on HFD in fasting condition with Lincoplex kit (#MADPK-71k-03, Linco Research Inc., St. Charles, Mo.). […] After an overnight fast, blood glucose and insulin were measured and used to determine insulin sensitivity through HOMA IR (IR=fasting insulin […] X fasting glucose mg/dL÷405). […] FIG. 2F illustrates the degree of the blot signal in the panel 2E, by quantifying the signal and normalizing with protein loading. **P<0.001 (n=2).

[2] = tested on: skeletal muscle mitochondrial function; assay: Fatty acid oxidation and gene expression in skeletal muscle; conditions: butyrate 5% w/w in HFD 13 weeks
Description: (§1) Total RNA was extracted from frozen tissues (kept at −80° C.) using Tri-Reagent (T9424, Sigma) as described elsewhere (16). Taqman RT-PCR primer and probe were used to determine mRNA for PGC-1α (Mm00447183_m1), UCP-1 (Mm00494069_m1), PPARδ (Mm01305434_m1) and CPT1b (Mm00487200_m1). The reagents were purchased from Applied Biosystems (Foster City, Calif.). Mouse ribosome 18S rRNA_s1 (without intron-exon junction) was used as an internal control. Reaction was conducted with 7900 HT Fast real time PCR System (Applied Biosystems, Foster City, Calif.).
Mitochondrial function was examined in the skeletal muscle tissue and L6 muscle cells under butyrate treatment. Fatty acid oxidation was monitored in the […] with ^14C-labeled palmitic acid.
Vastus laterais muscle and blood samples were collected from mice at 13 weeks on HFD (18 weeks in age) and examined for fatty acid oxidation, gene expression, and blood lipids. FIG. 7A illustrates the fatty acid oxidation in muscle, measured as a fold change in ^14C-labeled CO2.
In addition, relative fold change in mRNA was used to indicate gene expression of PGC-1α target genes, such as CPT-1b (carnitine palmitoyltransferase-1b) and COX-I (cytochrome c oxidase I), and of the nuclear receptor PPARδ. In FIG. 7C, mitochondrial DNA of COX I was determined by Sybr green RT-PCR. The fatty acid oxidation was associated with expression of PGC-1α target genes, such as CPT-1b (carnitine palmitoyltransferase-1b) and COX-I (cytochrome c oxidase I) (9). Expression of these two genes was increased in the skeletal muscle of butyrate-treated mice (FIGS. 7B and 7C). The nuclear receptor PPARδ promotes fatty acids oxidation in skeletal muscle (29).

epididymal fat pad = assay: White adipose tissue: fat pad morphology and gene expression
Description: as §1
Fresh tissues (muscle, fat and liver) were collected at 16 weeks of age after 12 weeks butyrate feeding and fixed in 10% neutral buffered formalin solution (HT50-1-2, Sigma). The tissue slides were obtained through serial cross-section cutting at 8 um thickness and processed with a standard procedure. Briefly, the slides were deparaffinated and stained in haematoxylin (#101542, Surgipath) for 15 min, and rinsed in water until sections are blue. Then, slides were stained in Eosin (E4009, Sigma), dehydrated quickly in 95% ethanol and treated with […]. The sections were mounted and photographed with Nikon microscope (Eclipse TS100, Japan).
The epididymal fat pad was examined to test this effect of butyrate. The tissue was collected at 13 weeks on HFD (18 weeks in age) and used to make a tissue slide (FIG. 3A). After H&E staining, the slide was photographed under a microscope at magnification 20× (FIG. 3A). Gene expression was determined by qRT-PCR at day 8 after induction of cell differentiation of 3T3-L1 cells. Butyrate was used at 100 uM during induction of adipogenesis. Triglycerides in the 3T3-L1 mature adipocyte cells were quantified using Oil red 0 staining at the day 8 post-induction of differentiation (FIG. 3C). In addition, levels of mRNA for leptin, adiponectin, F4/80 (macrophage marker), TNF-α, and iNOS were determined in the epididymal fat and their relative levels are presented in bar figures (FIGS. 3D-3H). In FIGS. 3A-3H, data are represented as mean±SE (n=8). *P<0.05, **P<0.001.

[3] = tested on: C57BL/6J mice on high fat diet; assay: Body temperature in cold response (4° C.); conditions: butyrate 5% w/w in HFD 10 weeks, ambient 4° C.
Description: Body temperature was measured in the cold room with ambient temperature at 4° C. Animals were sedated and restrained for less than 30 sec in the measurement. A Thermalert model TH-8 temperature monitor (Physitemp, Clifton, N.J.) was used with probe placed in the rectum at 2.5 cm in depth.
The association of increased food intake with elevated energy expenditure implicated a role of brown adipose tissue, which is responsible for adaptive thermogenesis in response to diet or cold (20-22). Diet-induced thermogenesis reduces obesity in both humans and animals (23). […] To determine the thermogenic function, a cold-response experiment was conducted by exposing the mice to a cold environment with an ambient temperature of 4° C. for 90 min. The mice had been on HFD for 10 weeks. The body core temperature was monitored three times during exposure by measuring the rectal temperature. In the control mice, the body temperature decreased with time and was 34.5° C. after 90 min in the cold (FIG. 4A). In the butyrate-treated mice, the body temperature dropped to 35° C. transiently at 30 minutes, and then returned to 36° C. for the rest of time.

[4] = butyrate 5% w/w in HFD vs control, mRNA

Question: What does the source list for `CCCC(=O)[O-].[Na+]` [sodium butyrate]?
Answer: threonine 308 phosphorylation of Akt [1]: increased; tyrosine 632 (Y632) phosphorylation of IRS-1 [1]: increased; fatty acid oxidation in muscle, increase in 14C-labeled CO2 ([2]; 14C-labeled palmitic acid): 200%; CPT-1b expression in skeletal muscle ([2]; mRNA): increased; PPARδ expression in skeletal muscle ([2]; mRNA): also increased; COX-I expression in skeletal muscle ([2]; mitochondrial DNA by Sybr green RT-PCR): increased; TNF-α expression in epididymal fat (epididymal fat pad; [4]): reduced; iNOS expression in epididymal fat (epididymal fat pad; [4]): reduced; leptin expression in epididymal fat (epididymal fat pad; [4]): lower level; macrophage marker F4/80 expression in epididymal fat (epididymal fat pad; [4]): reduced; epididymal fat pad mass, less than control (epididymal fat pad; butyrate 5% w/w in HFD, 13 weeks): 80%; adipocyte size, smaller than control (epididymal fat pad; butyrate 5% w/w in HFD, 13 weeks, H&E): 50%; adiponectin expression in epididymal fat, higher than control (epididymal fat pad; butyrate 5% w/w in HFD, mRNA): 50%; body temperature (rectal) at 30 minutes in the cold [3]: 35 °C; body temperature (rectal) for the rest of time in the cold ([3]; up to 90 min): 36 °C
